Patent publication US20030044399A1, “Method of treatment” (SmithKline Beecham Corporation, priority 1998, published 2003)

How the values were obtained:
[1] = target: Falcipain 2 (Plasmodium falciparum, UniProt Q8I6U4); experiment: Cysteine protease inhibition, progress curve method, falcipain; type: biochemical; conditions: 10 uM Cbz-Leu-Arg-AMC, 100 mM Na acetate pH 5.5, 5 mM cysteine
Description: Standard assay conditions for the determination of kinetic constants used 10 uM fluorogenic peptide substrate, Cbz-Phe-Arg-AMC for the cysteine proteases from Leishmania spp and Schistosoma Mansoni, Cbz-Leu-Arg-AMC for the cysteine proteases from Plasmodium falciparum and Trypanosoma brucei rhodesiensi, and Ac-Lys-Glu-Lys-Leu-Arg-AMC (4 uM final substrate concentration) for the cysteine protease from Trypoanosoma cruzi, and were determined in 100 mM Na acetate at pH 5.5 containing 5 mM cysteine. Stock substrate solutions were prepared at concentrations of […] in DMSO with 10 uM (4 uM for Ac-Lys-Glu-Lys-Leu-Arg-AMC) final substrate concentration in the assays. The final DMSO concentration was 2% and the final volume was 100 uL. All assays were conducted at ambient temperature. Product progress curves were generated over 20 to 30 minutes following formation of AMC product.
Potential inhibitors were evaluated using the progress curve method. Assays were carried out in the presence of variable concentrations of test compound. Reactions were initiated by addition of enzyme to buffered solutions of inhibitor and substrate. Data analysis was conducted according to one of two procedures depending on the appearance of the progress curves in the presence of inhibitors. For those compounds whose progress curves were linear, apparent inhibition constants (Ki,app) were calculated according to equation 1 (Brandt et al., Biochemitsry, 1989, 28, 140):
v=VmA/[Ka(1+I/Ki,app)+A] (1)
Where v is the velocity of the reaction with maximal velocity Vm, A is the concentration of substrate with Michaelis constant of Ka, and I is the concentration of inhibitor.
[AMC]=vsst+(v0−vss)[1−exp (−kobst)]/kobs (2)
Where [AMC] is the concentration of product formed over time t, v0 is the initial reaction velocity and vss is the final steady state rate. Values for kobs were then analyzed as a linear function of inhibitor concentration to generate an apparent second order rate constant (kobs/inhibitor concentration or kobs/[I]) describing the time-dependent inhibition. A complete discussion of this kinetic treatment has been fully described (Morrison et al., Adv. Enzymol. Relat. Areas Mol. Biol., 1988, 61, 201).
Exemplary inhibition data for the compounds used in the present method collected in accordance with the above-described procedure are listed in Table I.

[2] = target: Cruzain (Trypanosoma cruzi, UniProt P25779); experiment: Cysteine protease inhibition, progress curve method, cruzain; type: biochemical; conditions: 4 uM Ac-Lys-Glu-Lys-Leu-Arg-AMC, 100 mM Na acetate pH 5.5, 5 mM cysteine; read-out: Cruzain Ki
Sequence of Cruzain (P25779 123-337): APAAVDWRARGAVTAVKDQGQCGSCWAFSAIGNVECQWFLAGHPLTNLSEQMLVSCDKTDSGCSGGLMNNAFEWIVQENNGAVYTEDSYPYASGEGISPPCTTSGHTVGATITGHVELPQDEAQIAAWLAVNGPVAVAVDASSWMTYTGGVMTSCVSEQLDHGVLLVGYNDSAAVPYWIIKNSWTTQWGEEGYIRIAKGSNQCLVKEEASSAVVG
Procedure, shortened: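 Buffer was 100 mM sodium acetate pH 5.5 with 5 mM cysteine and 2% DMSO, at ambient temperature; reactions started with enzyme, and AMC formation was followed for 20–30 min. Substrates: Leishmania and Schistosoma, 10 uM Cbz-Phe-Arg-AMC; falcipain, 10 uM Cbz-Leu-Arg-AMC; cruzain, 4 uM Ac-Lys-Glu-Lys-Leu-Arg-AMC. Linear curves gave Ki,app; curved ones gave kobs/[I].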

[3] = target: Rhodazain (Trypanosoma brucei rhodesiense, UniProt Q95PM0); experiment: Cysteine protease inhibition, progress curve method, rhodazain; type: biochemical, Trypanosoma brucei rhodesiensi; conditions: Rhodazain Ki (nM), 10 uM Cbz-Leu-Arg-AMC, 100 mM Na acetate pH 5.5, 5 mM cysteine
Sequence of Rhodazain (Q95PM0 entry or part of it): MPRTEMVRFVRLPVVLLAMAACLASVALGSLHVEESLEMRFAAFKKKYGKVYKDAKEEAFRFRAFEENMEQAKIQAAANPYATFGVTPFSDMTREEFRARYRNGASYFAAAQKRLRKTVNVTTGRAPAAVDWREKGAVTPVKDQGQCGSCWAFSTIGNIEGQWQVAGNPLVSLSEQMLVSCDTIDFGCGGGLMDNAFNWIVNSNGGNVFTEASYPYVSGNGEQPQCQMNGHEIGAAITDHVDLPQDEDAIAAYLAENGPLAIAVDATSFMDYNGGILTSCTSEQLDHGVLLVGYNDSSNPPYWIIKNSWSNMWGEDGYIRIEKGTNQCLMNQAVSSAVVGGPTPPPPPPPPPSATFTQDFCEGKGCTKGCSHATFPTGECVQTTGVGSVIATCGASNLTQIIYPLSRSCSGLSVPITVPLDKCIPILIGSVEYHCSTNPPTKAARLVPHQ

Sequence of Falcipain 2 (Q8I6U4 244-484): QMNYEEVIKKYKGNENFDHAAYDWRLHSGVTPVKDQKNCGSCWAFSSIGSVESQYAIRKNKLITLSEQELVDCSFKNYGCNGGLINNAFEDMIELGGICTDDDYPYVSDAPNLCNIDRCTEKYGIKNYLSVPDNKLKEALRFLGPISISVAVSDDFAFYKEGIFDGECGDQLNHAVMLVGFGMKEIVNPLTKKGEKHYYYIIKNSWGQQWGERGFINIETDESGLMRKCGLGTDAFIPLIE

Row | Ki [1] [nM] | SMILES | Ki [2] [nM] | Ki [3] [nM]
1 | 14 | CC(C)C[C@@H](NC(=O)c1cc2cc(OCCN3CCNCC3)ccc2o1)C(=O)N[C@@H]1CCCN(S(=O)(=O)c2ccccn2)CC1=O [Example 23, 5-(2-Piperizin-1-yl-ethoxy)-benzofuran-2-carboxylic acid {(S)-3-methyl-1-[3-oxo-1-(pyridine-2-sulfonyl)-azepan-4-ylcarbamoyl]-3-butyl}-amide] | – | –
2 | 3 | CC(C)C[C@@H](NC(=O)c1cc2cc(OCCN3CCOCC3)ccc2o1)C(=O)NC1CCCN(C(=O)Cc2cccc(-c3ccccn3)c2)CC1=O (stereo partly drawn) [Example 3, 5-(2-morpholino-4-yl-ethoxy)-benzofuran-2-carboxylic acid ((S)-3-methyl-1-{3-oxo-1-[2-(3-pyridin-2-yl-phenyl)acetyl]-azepan-4-ylcarbamoyl}-butyl)amide] | – | –
3 | 5.2 | COc1ccc(S(=O)(=O)N2CCCC(NC(=O)C(CC(C)C)NC(=O)c3ccc4c(c3)OCO4)C(=O)C2)cc1 (stereo in doubt) [Example 73, Benzo[1,3]dioxole-5-carboxylic acid {(S)-1-[1-(4-methoxy-benzenesulfonyl)-3-oxo-azepan-4-ylcarbamoyl]-3-methyl-butyl}-amide] | – | –
4 | 43 | O=C(N[C@@H](CC1CCCCC1)C(=O)N[C@H]1CCCN(S(=O)(=O)c2cccc[n+]2[O-])CC1=O)c1ccc(-c2cccc(C(F)(F)F)c2)o1 [Example 169, 5-(3-Trifluoromethyl-phenyl)-furan-2-carboxylic acid {(S)-2-cyclohexyl-1-[3-oxo-1-(1-oxy-pyridine-2-sulfonyl)-azepan-4-ylcarbamoyl]-ethyl}-amide] | – | –
5 | 5.9 | COc1ccc(S(=O)(=O)N2CCC[C@@H](NC(=O)[C@H](CC(C)C)NC(=O)c3ccc(OC)c(OC)c3)C(=O)C2)cc1 [Example 107, 3,4-Dimethoxy-N—{(S)-1-[1-(4-methoxy-benzenesulfonyl)-3-oxo-azepan-4-ylcarbamoyl]-3-methyl-butyl}-benzamide] | – | –
6 | 5.6 | COc1cccc(S(=O)(=O)N2CCC[C@H](NC(=O)[C@H](CC(C)C)NC(=O)c3cc4cccc(OC)c4o3)C(=O)C2)c1 [Example 138, 7-Methoxy-benzofuran-2-carboxylic acid-{(S)-1-[1-(3-methoxy-benzenesulfonyl)-3-oxo-azepan-4-ylcarbamoyl]-3-methyl-butyl}-amide] | – | –
7 | 34 | CC(C)C[C@@H](NC(=O)c1cc2cc(OCCN3CCOCC3)ccc2o1)C(=O)N[C@@H]1CCCN(C(=O)Nc2ccccc2)CC1=O [Example 5, 4-((S)-4-Methyl-2-{[5-(2-morpholino-4-yl-ethoxy)-benzofuran-2-carbonyl]amino}-pentanoylamino)-3-oxo-azepane-1-carboxylic acid phenylamide] | – | –
8 | 65 | CC(C)C[C@@H](NC(=O)c1cc2cc(OCCN3CCCCC3)ccc2o1)C(=O)N[C@@H]1CCCN(S(=O)(=O)c2ccccc2)CC1=O (stereo in doubt) [Example 9, 5-(2-Piperidin-1-yl-ethoxy)-benzofuran-2-carboxylic acid [(S)-1-(1-benzenesulfonyl-3-oxo-azepan-4-ylcarbamoyl)-3-methyl-butyl]amide] | – | –
9 | – | CC(C)C[C@H](NC(=O)c1cc2ccccc2o1)C(=O)NC1CCCN(S(=O)(=O)c2cccc(F)c2)CC1=O (stereo partly drawn) [Example 183, Benzofuran-2-carboxylic acid {(S)-1-[-(3-fluoro-benzensulfonyl)-3-oxo-azepan-4-ylcarbamoyl]-3-methyl-1-butyl}-amide] | 7.1 | 6.5
10 | – | CC(C)C[C@@H](NC(=O)c1ccc2ncccc2c1)C(=O)N[C@@H]1CCCN(S(=O)(=O)c2ccccn2)CC1=O (stereo in doubt) [Example 25, Quinoline-6-carboxylic acid {(S)-3-methyl-1-[3-oxo-1-(pyridine-2-sulfonyl)-azepan-4-ylcarbamoyl]-butyl}amide] | 8.3 | 8
11 | – | Cc1c(C(=O)NC(CC(C)C)C(=O)N[C@H]2CCCN(S(=O)(=O)c3cccc[n+]3[O-])CC2=O)oc2cc(F)ccc12 (single isomer, unassigned) [Example 196] | 11 | 6.8
12 | – | CC(C)C[C@@H](NC(=O)c1ccnc2ccccc12)C(=O)N[C@@H]1CCCN(S(=O)(=O)c2ccccn2)CC1=O (stereo in doubt) [Example 26, Quinoline-4-carboxylic acid {(S)-3-methyl-1-[3-oxo-1-(pyridine-2-sulfonyl)-azepan-4-ylcarbamoyl]-butyl}amide] | 9.4 | 8.1
13 | – | CC(C)CC(NC(=O)c1ccc(F)cc1)C(=O)N[C@@H]1CCCN(S(=O)(=O)c2cccc[n+]2[O-])CC1=O (stereo partly drawn) [Example 77, 4-Fluoro-{(S)-3-methyl-1-[3-oxo-1-(1-oxy-pyridine-2-sulfonyl)-azepan-4-carbamoyl]-butyl}-benzamide] | 15 | 7.9
14 | – | CC(C)C[C@@H](NC(=O)c1cc2ccccc2s1)C(=O)N[C@@H]1CCCN(S(=O)(=O)c2ccccn2)CC1=O (stereo in doubt) [Example 31, Benzo[b]thiophene-2-carboxylic acid {(S)-3-methyl-1-[3-oxo-1-(pyridine-2-sulfonyl)-azepan-4-ylcarbamoyl]-butyl}amide] | 7.2 | 5
15 | – | COc1ccc2oc(C(=O)N[C@H](CC(C)C)C(=O)N[C@@H]3CCCN(S(=O)(=O)c4cccc[n+]4[O-])CC3=O)cc2c1 (single isomer, unassigned) [Example 63] | 9.8 | 5.9
16 | – | CC(C)C[C@H](NC(=O)c1ccc2ccccc2n1)C(=O)N[C@H]1CCCN(C(=O)Nc2ccccc2F)CC1=O [Example 219, Quinoline-2-carboxylic acid {(S)-1-[1-(2-fluoro-phenylcarbamoyl)-3-oxo-azepan-4-ylcarbamoyl]-3-methyl-butyl}-amide] | 8.4 | 5.5
17 | – | COc1ccc2c(C)c(C(=O)NC(CC(C)C)C(=O)N[C@H]3CCN(S(=O)(=O)c4cccc[n+]4[O-])CCC3=O)oc2c1 (single isomer, unassigned) [Example 211] | 10 | 2.8
18 | – | CC(C)C[C@H](NC(=O)c1cc2ccccc2s1)C(=O)N[C@H]1CCCN(C(=O)Nc2ccccc2F)CC1=O (stereo in doubt) [Example 215, Benzo[b]thiophene-2-carboxylic acid {(S)-1-[1-(2-fluoro-phenylcarbamoyl)-3-oxo-azepan-4-ylcarbamoyl]-3-methyl-butyl}-amide] | 6.4 | 3.6
19 | – | Cc1c(C(=O)N[C@@H](CC(C)C)C(=O)N[C@@H]2CCCN(S(=O)(=O)c3cccs3)CC2=O)oc2ccccc12 [Example 145, 3-Methyl-benzofuran-2-carboxylic acid-{(S)-3-methyl-1-[3-oxo-1-(thiophene-2-sulfonyl)-azepan-4-ylcarbamoyl]-butyl}-amide] | 6.2 | 9.4
20 | – | CC(C)C[C@H](NC(=O)c1cc2ccccc2o1)C(=O)N[C@H]1C[C@H](C)CN(S(=O)(=O)c2ccccn2)CC1=O (single isomer, unassigned) [Example 167] | 3.5 | 4
21 | – | CC(C)C[C@@H](NC(=O)c1cc2ccccc2o1)C(=O)N[C@@H]1CCCN(S(=O)(=O)c2cccc[n+]2[O-])CC1=O [Example 49] | 5.6 | 3.1
22 | – | COc1ccc(C(=O)N[C@H](CC(C)C)C(=O)N[C@@H]2CCCN(S(=O)(=O)c3ccccc3C#N)CC2=O)cc1OC [Example 120] | 9.9 | 11
23 | – | CC(C)C[C@@H](NC(=O)c1ccc(Br)o1)C(=O)N[C@@H]1CCCN(S(=O)(=O)c2ccccn2)CC1=O (stereo in doubt) [Example 34, 5-Bromo-furan-2-carboxylic acid {(S)-3-methyl-1-[3-oxo-1-(pyridine-2-sulfonyl)-azepan-4-ylcarbamoyl]-butyl}amide] | 12 | 2.6
24 | – | Cc1ccc2oc(C(=O)NC(CC(C)C)C(=O)N[C@H]3CCN(S(=O)(=O)c4cccc[n+]4[O-])CCC3=O)c(C)c2c1 (single isomer, unassigned) [Example 206] | 6.6 | 4.9
